# Structures can show the parent of a compound that is named as a salt.
# Tested on: E. coli clinical isolates
# Assay: screen of strains on agar plates (CPS ID 3 or Columbia agar)
# Type: cell-based
# Parameters: key to colour: Red, Green, Black or Purple mean strong colour; Red, Green, Black or Purple mean strong colour; Red, Green, Black or Purple mean strong colour; Red, Green, Black or Purple mean strong colour; +/− means less colour than strong; Tr means a trace of colour, less than +/−; — means no colour
# Conditions: for colour: 37° C. 18 hours
# Source text: In order to obtain a fuller picture of the sensitivity of the substrates, they were screened with 100 different clinical isolates of E. coli in a liquid medium containing FAC. The isolates were chosen at random from the Microbiology Department, Freeman Hospital, Newcastle Upon Tyne, UK. The effectiveness of the new substrates was compared with three other media which all contained indoxyl-β-D-glucuronides. One was a commercial medium, CPS ID 3 (bioMérieux SA, Lyon, France). […] This medium was employed as a control. Among the β-D-glucuronidase producing strains of E. coli there is a large variation in the quantity of the enzyme produced and it is almost certain that the CPS ID 3 medium has been rigorously optimised to allow good growth of all the target organisms and maximum expression of the target enzymes. Therefore, two indoxyl glucuronides, X-β-D-glucuronide CHA salt and Rose-β-D-glucuronide CHA salt were also tested in a simple agar medium to allow a direct comparison of the sensitivity of these Indoxyl glucuronides when used in a medium that has not been optimised for the growth of the target organism. The comparison of the results for Rose-β-D-glucuronide and the CPS ID 3 medium was of particular significance as the commercial medium also uses Rose-β-D-glucuronide for the detection of E. coli. For consistency, the four glucuronides were all chosen as their CHA salts. As already stated, it is not anticipated that the salt form is critical to their performance. Currently. X-β-D-glucuronide is often used as either the CHA salt or the sodium salt. Brenner and colleagues [K. P. Brenner et al, Appl. Environ. Microbiol., 59, 3534-3544, (1993)] found no difference in the performance of the CHA and sodium salt forms with their application using indoxyl-β-D-glucuronide, neither in respect of colour development nor in the recovery of E. coli.
# The two indoxyl glucuronides used produce insoluble endpoints following hydrolysis, as does the CPS ID 3 medium. It was therefore necessary to test these two substrates on agar plates. In contrast, catechol-β-D-glucuronide (1) and DHN-β-D-glucuronide (2b) give much more soluble endpoints best suited to liquid media and were therefore tested in a broth medium. Each broth was prepared using proteose peptone (Oxoid, Basingstoke, UK) (2 g), NaCl (1 g) and FAC (100 mg) in DI water (180 mL). This mixture was autoclaved and cooled to room temperature before being dispensed into bijoux (100×1.8 mL). Catechol β-D-glucuronide CHA salt (1) or DHN-β-D-glucuronide CHA salt (2b) (60 mg) were each dissolved in water (20 mL) and filtered to sterilize before being aseptically dispensed into successive bijoux (0.2 mL) containing the broth solution. The broth/substrate solutions were then inoculated with bacterial suspensions made up to 0.5 McFarland standard (2 μL per bijoux). X-β-D-glucuronide CHA salt (Glycosynth Ltd, Warrington, UK) (10 mg) was dissolved in NMP (200 μL). Rose-β-D-glucuronide CHA salt (Glycosynth Ltd, Warrington, UK) (20 mg) was dissolved in NMP (200 μL). These solutions were then added to Columbia agar (Oxoid, Basingstoke, UK) (100 mL) and inoculated with bacterial suspensions made up to 0.5 McFarland standard (1 μL). The plates and broths were incubated at 37° C. for 18 hours in air.
# [1] = 100 E. coli strains after 18 h incubation
smiles,measurement,setting,value
"O=C(O)[C@H]1O[C@@H](Oc2c[nH]c3cc(Cl)ccc23)[C@H](O)[C@@H](O)[C@@H]1O [Rose-β-D-glucuronide CHA salt, 6-chloro-3-indolyl β-D-glucuronide]",% Sensitivity,[1],81%
same,Negative strains,[1],19
same,Positive strains,[1],81
same,colour,E. coli 260262P,Red
same,colour,E. coli 260280Z,Red
same,colour,E. coli 260310H,Red
same,colour,E. coli 260313A,—
same,colour,E. coli 260316T,—
same,colour,E. coli 260327V,Red
same,colour,E. coli 260330Y,Red
same,colour,E. coli 260333P,—
same,colour,E. coli 260345F,Red
same,colour,E. coli 260348K,Red
same,colour,E. coli 260354W,Red
same,colour,E. coli 260364H,—
same,colour,E. coli 260370C,Red
same,colour,E. coli 260375E,Red
same,colour,E. coli 260390B,—
same,colour,E. coli 260396Z,Red
same,colour,E. coli 260398Q,Red
same,colour,E. coli 260400N,—
same,colour,E. coli 260401Q,Red
same,colour,E. coli 260402H,Red
same,colour,E. coli 260404W,Red
same,colour,E. coli 260405P,Red
same,colour,E. coli 260406A,—
same,colour,E. coli 260406Y,Red
same,colour,E. coli 260407F,Red
same,colour,E. coli 260408C,Red
same,colour,E. coli 260411Z,Red
same,colour,E. coli 260412Q,Red
same,colour,E. coli 260414H,Red
same,colour,E. coli 260415Y,Red
same,colour,E. coli 260416W,—
same,colour,E. coli 260417P,Red
same,colour,E. coli 260422Y,Red
same,colour,E. coli 260424P,Red
same,colour,E. coli 260425A,Red
same,colour,E. coli 260426F,Red
same,colour,E. coli 260428T,Red
same,colour,E. coli 260431N,Red
same,colour,E. coli 260432E,Red
same,colour,E. coli 260433H,Red
same,colour,E. coli 260434Y,Red
same,colour,E. coli 260435W,Red
same,colour,E. coli 260436P,Red
same,colour,E. coli 260437A,Tr. Red
same,colour,E. coli 260438F,Red
same,colour,E. coli 260439C,Red
same,colour,E. coli 260440S,Red
same,colour,E. coli 260441G,Red
same,colour,E. coli 260458Y,Red
same,colour,E. coli 260459W,Red
same,colour,E. coli 260463D,Red
same,colour,E. coli 260464G,Red
same,colour,E. coli 260471B,—
same,colour,E. coli 260478N,—
same,colour,E. coli 260479Q,Red
same,colour,E. coli 260480M,Red
same,colour,E. coli 260481J,Red
same,colour,E. coli 260483R,—
same,colour,E. coli 260485D,Red
same,colour,E. coli 260486L,Red
same,colour,E. coli 260492J,Red
same,colour,E. coli 260494B,Red
same,colour,E. coli 260495R,—
same,colour,E. coli 260497D,Red
same,colour,E. coli 260502G,Red
same,colour,E. coli 260503Z,Red
same,colour,E. coli 260504N,Red
same,colour,E. coli 260505Q,—
same,colour,E. coli 260506E,Red
same,colour,E. coli 260508Y,Red
same,colour,E. coli 260509W,Red
same,colour,E. coli 260510R,Red
same,colour,E. coli 260511X,Red
same,colour,E. coli 260514G,—
same,colour,E. coli 260515Z,Red
same,colour,E. coli 260521S,Red
same,colour,E. coli 260522Z,Red
same,colour,E. coli 260532S,Red
same,colour,E. coli 260533G,Red
same,colour,E. coli 260536Q,Red
same,colour,E. coli 260537E,—
same,colour,E. coli 260538H,—
same,colour,E. coli 260539Y,Red
same,colour,E. coli 260541R,Red
same,colour,E. coli 260545G,Red
same,colour,E. coli 260547N,Red
same,colour,E. coli 260548Q,Red
same,colour,E. coli 260549E,Red
same,colour,E. coli 260553X,—
same,colour,E. coli 260554D,Red
same,colour,E. coli 260555L,Red
same,colour,E. coli 260563B,Red
same,colour,E. coli 260564R,Red
same,colour,E. coli 260578D,—
same,colour,E. coli 2603121P,—
same,colour,E. coli 2604399E,Red
same,colour,E. coli O157 non-toxigenic,—
same,colour of positive colonies,in words,red colonies
